According to the NIST ThermoML archive (doi:10.1021/acs.jced.7b00354):
Where “and” joins values, the source holds several entries; their conditions need not be identical. Equal entries are not always repeated.

Details: Transpiration method

O=C1C=CC(=O)C=C1 [1,4-benzoquinone]
Crystal
Details | vapor or sublimation pressure
290.2 K | 0.01002 kPa
293.4 K | 0.01343 kPa
297.5 K | 0.02081 kPa
298.5 K | 0.02319 kPa
301.4 K | 0.03014 kPa
303.1 K | 0.03408 kPa
307.3 K | 0.05078 kPa
308.3 K | 0.0527 kPa
310.2 K | 0.06526 kPa
313.3 K | 0.07951 kPa
314.1 K | 0.08416 kPa
317.3 K | 0.1098 kPa
320.1 K | 0.1364 kPa
323 K | 0.1783 kPa
323.3 K | 0.1841 kPa
324.2 K | 0.1861 kPa
327.2 K | 0.2502 kPa and 0.2417 kPa
328.1 K | 0.2659 kPa
330.3 K | 0.3065 kPa
333.2 K | 0.3846 kPa and 0.3832 kPa
334.2 K | 0.4116 kPa
338.1 K | 0.5504 kPa
338.2 K | 0.5497 kPa and 0.5525 kPa

CC1=CC(=O)C=CC1=O [2,5-cyclohexadiene-1,4-dione, 2-methyl]
Details | vapor or sublimation pressure
282.2 K, Crystal | 0.00318 kPa
285.6 K, Crystal | 0.00523 kPa and 0.0051 kPa
286.8 K, Crystal | 0.00566 kPa
288.5 K, Crystal | 0.00664 kPa and 0.00678 kPa
290.8 K, Crystal | 0.0091 kPa
295.2 K, Crystal | 0.01426 kPa
300.4 K, Crystal | 0.02498 kPa
305.3 K, Crystal | 0.04235 kPa
310.2 K, Crystal | 0.06335 kPa
312.9 K, Crystal | 0.08525 kPa
315.2 K, Crystal | 0.1054 kPa
317.9 K, Crystal | 0.1305 kPa
320.1 K, Crystal | 0.1774 kPa
322 K, Crystal | 0.2004 kPa
325.1 K, Crystal | 0.2769 kPa
327.8 K, Crystal | 0.3444 kPa
330.1 K, Crystal | 0.4336 kPa
331.6 K, Crystal | 0.4466 kPa
332.1 K, Crystal | 0.5012 kPa
335.2 K, Crystal | 0.6342 kPa
336.7 K, Crystal | 0.7271 kPa
343.2 K, Liquid | 1.019 kPa
347.2 K, Liquid | 1.264 kPa
351.2 K, Liquid | 1.552 kPa
355.1 K, Liquid | 1.947 kPa
356.8 K, Liquid | 2.104 kPa
359.1 K, Liquid | 2.373 kPa
363.1 K, Liquid | 2.94 kPa
